The text below walks through data of patent US20060057559A1, “High-throughput cell migration screening assay” (Rigel Pharmaceuticals, Inc., priority 2004, published 2006).

The target of one experiment is T1, EDG3 (Homo sapiens, UniProt Q99500).
T1 construct: expressed in transfected cells; host or cells: T lymphoid cell line (Jurkat, EDG3 #1 clone), pNIGEDG3 vector, constitutive expression
Kind of experiment: Migration assay employing EDG3 as a migration molecule (T lymphoid cells overexpressing EDG3 migrating toward S1P, 96-well, CyQuant GR fluorescence). The format is cell-based. Here is the method: (§1) Both cell lines were used to optimize assay parameters in order to maximize accuracy and throughput in an automated 96-well format. Compounds were added together with S1P in bottom receiver plate; lipid starved cells were placed in the upper filter plate. The T cell migration may be finished in 2 to 4 hours. The cells which migrated to the receiver plate were stained with a fluorescence dye (CyQuant GR™) and detected by a fluorescence plate reader.
On day one, EDG3 expressing cells were grown at 0.8 millions/ml in RPMI 1640 containing 10% lipid-free serum (Charcoal-Dextran-Stripped Fetal Bovine Serum, Cat# 100-502 (Gemini Bioproducts™)) for 24 hours. EDG3 cells are maintained below 3 million/ml at all times. On the next day, cells were spun down, washed once with serum-free medium and re-suspended in RPMI 1640 containing 0.1% BSA (fat-free, cell culture tested) (Cat# A8806 (SIGMA ALDRICH FLUKA CHEMICALS™)) at a density of 8×10^6 per ml. 170 μl RPMI 1640 (0.1% BSA) containing 60 nM S1P (Cat# SL-140 (BiOMOl™)) and/or desired drugs were added to the receiver plate of […] Millipore Multiscreen MIC plates (Cat# MAMI C3S 10, 3 um pore size (Millipore™)) and the filter plates were carefully placed over the receiver plate. […] After 30 min agitating at RT, the plate was read in a fluorescence plate reader using 480/520 nm filter set.

The target in another experiment is T2, EDG1 (Homo sapiens, UniProt P21453).
T2 construct: expressed in transfected cells; host or cells: T lymphoid cell line (Jurkat, EDG1 #15 clone), retroviral TIM EDG1 vector, tetracycline-regulated
Kind of experiment: Migration assay employing EDG1 as a migration molecule (T lymphoid cells overexpressing EDG1 migrating toward S1P, 96-well, CyQuant GR fluorescence). The format is cell-based. The following applies: migration in response to S1P, hydrochloride. Here is the method: as §1
On day one, EDG1 expressing cells were grown at 0.4 millions/ml in RPMI 1640 containing 10% lipid-free serum (Charcoal-Dextran-Stripped Fetal Bovine Serum, Cat# 100-502 (Gemini Bioproducts™)) for 24 hours. EDG1 cells are maintained below 1 million/ml at all times. On the next day, cells were spun down, washed once with serum-free medium and re-suspended in RPMI 1640 containing 0.1% BSA (fat-free, cell culture tested) (Cat# A8806 (SIGMA ALDRICH FLUKA CHEMICALS™)) at a density of 6×10^6 per ml. 170 μl RPMI 1640 (0.1% BSA) containing 20 nM S1P (Cat# SL-140 (BioMol™)) and/or desired drugs were added to the receiver plate of […] Millipore Multiscreen MIC™ plates (Cat# MAMI C3S 10, 3 um pore size (Millipore™)) and the filter plates were carefully placed over the receiver plate. […] After 30 min agitating at RT, the plate was read in a fluorescence plate reader using 480/520 nm filter set.

“Also recorded” adds a separate entry of the source. Structures can show the parent of a compound that is named as a salt.

T2 sequence (P21453 whole entry): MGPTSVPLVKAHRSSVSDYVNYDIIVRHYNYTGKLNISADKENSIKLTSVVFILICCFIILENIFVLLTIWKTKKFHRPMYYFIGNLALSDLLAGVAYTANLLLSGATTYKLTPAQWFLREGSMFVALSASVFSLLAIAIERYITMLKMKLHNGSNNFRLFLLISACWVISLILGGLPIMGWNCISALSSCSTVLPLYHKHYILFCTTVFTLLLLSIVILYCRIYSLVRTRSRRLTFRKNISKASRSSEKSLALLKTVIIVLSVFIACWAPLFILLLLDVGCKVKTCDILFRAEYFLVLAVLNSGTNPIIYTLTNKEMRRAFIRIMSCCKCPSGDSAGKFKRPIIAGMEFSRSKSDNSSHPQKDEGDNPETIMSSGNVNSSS
T1 sequence (Q99500 whole entry): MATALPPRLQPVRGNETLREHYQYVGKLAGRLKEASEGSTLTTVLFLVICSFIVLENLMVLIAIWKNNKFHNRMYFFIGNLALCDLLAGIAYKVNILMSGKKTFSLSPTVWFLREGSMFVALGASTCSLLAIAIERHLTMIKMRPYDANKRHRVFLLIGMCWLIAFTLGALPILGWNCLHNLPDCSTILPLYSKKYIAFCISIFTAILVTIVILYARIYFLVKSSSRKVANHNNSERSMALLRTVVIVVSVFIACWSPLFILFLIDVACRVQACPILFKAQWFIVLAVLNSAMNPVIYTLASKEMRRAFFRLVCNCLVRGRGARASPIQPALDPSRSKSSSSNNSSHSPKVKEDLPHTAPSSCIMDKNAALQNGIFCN

Consider `Cc1ccc(C(=O)Nc2ccc(S(=O)(=O)O)c3cc(S(=O)(=O)O)cc(S(=O)(=O)O)c23)cc1NC(=O)c1cccc(NC(=O)Nc2cccc(C(=O)Nc3cc(C(=O)Nc4ccc(S(=O)(=O)O)c5cc(S(=O)(=O)O)cc(S(=O)(=O)O)c45)ccc3C)c2)c1` [suramin], for which the “differential inhibition of EDG1 and EDG3 migration” value on EDG3 (EDG1 versus EDG3 clones, FIG. 10B) is “differential inhibition of EDG1 and EDG3 migration”. Further, the “inhibition of migration of EDG3 #1 clone” value against EDG3 (EDG3-overexpressing T lymphoid cells, migration in response to S1P) was “specifically inhibit; also recorded: inhibition of EDG3 #1 clone migration”.
Turning to `CCCCCCCCc1ccc(CCC(N)(CO)CO)cc1` [FTY720, 2-amino-2(2-[4-octylphenylethyl)-1,3-propanediol hydrochloride], the “inhibition of migration of EDG1 #15 clone” value against EDG1 is on record as “inhibition of migration; also recorded: specifically inhibit; also recorded: inhibits the migration of EDG1#15 clone”.
